Measurements reported in PMC5065787 (Bioorganic & medicinal chemistry, 2016).
Positions count from the first letter of the chain named.

Columns and labels:
Format in all cases: biochemical
Conditions in all cases: error in parentheses, no unit in table (sec^−1)
[1] = biological target: T1, WT h15-LOX-1 (Homo sapiens, UniProt P16050); assay: Steady-state substrate kinetics, WT
T1 sequence (P16050 1-662): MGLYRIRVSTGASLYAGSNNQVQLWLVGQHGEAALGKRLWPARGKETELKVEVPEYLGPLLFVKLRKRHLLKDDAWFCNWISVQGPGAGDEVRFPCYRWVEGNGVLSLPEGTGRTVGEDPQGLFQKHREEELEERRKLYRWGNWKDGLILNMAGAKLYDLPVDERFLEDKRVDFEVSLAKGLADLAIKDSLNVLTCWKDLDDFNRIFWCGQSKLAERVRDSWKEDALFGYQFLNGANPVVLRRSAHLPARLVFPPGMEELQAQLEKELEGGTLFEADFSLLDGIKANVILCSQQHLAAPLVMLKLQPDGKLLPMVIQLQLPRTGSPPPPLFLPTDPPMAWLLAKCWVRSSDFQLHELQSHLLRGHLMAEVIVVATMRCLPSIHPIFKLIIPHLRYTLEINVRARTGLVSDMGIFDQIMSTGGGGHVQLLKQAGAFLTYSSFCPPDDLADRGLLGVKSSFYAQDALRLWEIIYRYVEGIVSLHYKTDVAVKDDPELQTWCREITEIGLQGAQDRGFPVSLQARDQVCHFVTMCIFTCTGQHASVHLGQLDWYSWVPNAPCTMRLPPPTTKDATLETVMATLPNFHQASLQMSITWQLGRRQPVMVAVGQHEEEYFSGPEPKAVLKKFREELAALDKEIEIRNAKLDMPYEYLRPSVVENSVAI

[2] = biological target: T2, h15-LOX-1 Q547L (Homo sapiens, UniProt P16050, Q547L); assay: Steady-state substrate kinetics, Q547L
T2 sequence (P16050 1-662 Q547L): T1 sequence (P16050 1-662) with Q547L

[3] = biological target: T3, h15-LOX-1 F414I (Homo sapiens, UniProt P16050, F414I); assay: Steady-state substrate kinetics, F414I
T3 sequence (P16050 1-662 F414I): T1 sequence (P16050 1-662) with F414I

[4] = biological target: T4, h15-LOX-1 F414W (Homo sapiens, UniProt P16050, F414W); assay: Steady-state substrate kinetics, F414W
T4 sequence (P16050 1-662 F414W): T1 sequence (P16050 1-662) with F414W

kcat [1]: 11 (0.5)
kcat [2]: 2.9 (0.1)
kcat [3]: 1.8 (0.05)
kcat [4]: 2.8 (0.08)
Structure (SMILES): CCCCC/C=C\C/C=C\C/C=C\C/C=C\CCCC(=O)O [AA, arachidonic acid]
